Results published in patent publication US5593835A, “Methods and kits for RNA binding compounds” (President and Fellows of Harvard College, priority 1995, dated 1997).
Where two headings read alike, the source gives them in different places.

Experiments:
[1] = target: random selected RNA pool (low stringency tobramycin column); assay: Fluorescence assay, average binding of the random selected RNA pool; details: overall selected pool mixture
Description: To determine whether the W13 RNA clone is representative of the average binding capacity of the random selected RNA pool, the average KD values for the random selected pool were measured. […] Therefore, the W13 RNA is representative of the average binding capacity of the random selected pool.
(§1) Steady state fluorescence measurements were performed on a double beam fluorescence spectrometer (Perkin-Elmer Model 512, Norwalk, Conn.). The excitation wavelength was 341 nm. All measurements were done at 20° C. in 140 mM NaCl, 5 mM KCl, 1 mM CaCl2, 1 mM MgCl2, and 20 mM HEPES, pH 7.4. The KD of the PYT and the RNA aptamer was calculated by the curve fitting of the fluorescence intensity as a function of RNA concentration, using the following equation
(§2) Competition binding measurements of antibiotics with RNA and PYT were performed at constant concentrations of PYT and RNA by monitoring fluorescence intensity changes as a function of changing concentrations of the antibiotics (a standard fluorescence curve). The KD s for the antibiotics were calculated by the curve fitting of the fluorescence intensity of PYT as a function of antibiotic concentration, using the following equation: […]

[2] = target: X1s1 RNA (SEQ ID NO: 3), synthetically derived from the predicted structures; assay: Fluorescence binding measurements, X1s1 RNA
Description: (§3) The binding of tobramycin to two cloned RNAs X1 (SEQ ID NO:2) and J6 (SEQ ID NO:5), representative of both classes of consensus sequences, was measured using the fluorescence techniques described in the exemplification.
(§4) *synthetically derived from the predicted structures
as §1, §2

[3] = test system: RNA pool transcribed from DNA after the sixth selection, bound to tobramycin affinity column; assay: Elution of bound RNA from tobramycin affinity column; type: binding; details: 3 column volumes of 10 mM tobramycin
Description: Elution patterns of the RNA from the columns are shown in FIG. 4 for the second and sixth selections. Over 6 cycles of selection, the percentages of RNA specifically eluted with tobramycin were <0.1%, 3.0%, 2.9%, 26%, 55%, and 82%. […] The RNA pool transcribed from DNA after the sixth selection could not be eluted from the affinity column, even after 100 column volumes of selection buffer.
An N-hydroxysuccinimide Affi-Gel affinity column (Bio-Rad, Hercules, Calif.) was derivatized with either 20 μmoles or 0.075 μmoles tobramycin per ml of gel to generate the affinity columns. Excess N-hydroxysuccinimide linkages were blocked by adding 1M ethanolamine. The resulting column served as the support for the RNA selections. The tobramycin concentration on column was estimated as about 15 mM. Selections were performed in 1 ml column volumes in a buffer (selection buffer) containing 140 mM NaCl, 5 mM KCl, 1 mM CaCl2, 1 mM MgCl2, and 20 mM Tris acetate, pH 7.4 (Bock et al. (1992) Nature 355: 564-566). A 1 ml Affi-Gel 10 pre-column treated with ethanolamine was used in all selections.
The original double stranded DNA pool was constructed by large scale PCR amplification of the synthesized 109mer random DNA pool (Oligos, Etc., Inc., Wilsonville, Oreg.) containing 60 random nucleotides. […]

[4] = target: J6a1 RNA (SEQ ID NO: 5), synthetically derived from the predicted structures; assay: Fluorescence binding measurements, J6a1 RNA
Description: as §3, §4, §1, §2

J6 RNA (SEQ ID NO:5) = assay: Fluorescence binding measurements, J6 RNA
Description: as §3, §1, §2

[5] = K1 - high affinity, read-out: Dissociation Constants K1(TOB)
[6] = K2 - low affinity, read-out: Dissociation Constants K2(TOB)

**Q.** `NC[C@H]1O[C@H](O[C@H]2[C@H](O)[C@@H](O[C@H]3O[C@H](CO)[C@@H](O)[C@H](N)[C@H]3O)[C@H](N)C[C@@H]2N)[C@H](N)C[C@@H]1O` [tobramycin] was tested. Which Kd [1] did it give?
**A.** 8.8 ± 0.3 µM

**Q.** And the Kd [2, 5]?
**A.** 0.012 ± 0.005 µM

**Q.** And the Kd [2, 6]?
**A.** 13.2 ± 0.5 µM

**Q.** What about the “RNA eluted from tobramycin affinity column” value [3] of the same molecule?
**A.** 96%

**Q.** What about the Kd [4, 5] of the same molecule?
**A.** 0.009 ± 0.003 µM

**Q.** And the Kd [4, 6]?
**A.** 2.7 ± 0.3 µM

**Q.** What about the Kd (J6 RNA (SEQ ID NO:5); [5]) of the same molecule?
**A.** 0.002 ± 0.001 µM

**Q.** And the Kd (J6 RNA (SEQ ID NO:5); [6])?
**A.** 6 ± 0.4 µM
